Assay results published in patent US7772252B2, “Heterocyclic substituted carbonyl derivatives and their use as dopamine D3 receptor ligands” (Aventis Pharmaceuticals Inc., priority 2001, dated 2010).

target: T1, cloned human dopamine D3 receptors (Homo sapiens, UniProt P35462); experiment: [N-Methyl-3H]Spiroperidol binding to cloned human dopamine D3 receptors; conditions: read-out: D3 Ki
T1 construct: expressed in transfected cells; membrane homogenate
Outline: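 Radioligand displacement with [N-methyl-3H]spiroperidol was run on membranes from a high-expressing CHO clone carrying human D3. Membranes were prepared in 10% DMSO and stored at −80° C.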

T1 sequence (P35462 whole entry): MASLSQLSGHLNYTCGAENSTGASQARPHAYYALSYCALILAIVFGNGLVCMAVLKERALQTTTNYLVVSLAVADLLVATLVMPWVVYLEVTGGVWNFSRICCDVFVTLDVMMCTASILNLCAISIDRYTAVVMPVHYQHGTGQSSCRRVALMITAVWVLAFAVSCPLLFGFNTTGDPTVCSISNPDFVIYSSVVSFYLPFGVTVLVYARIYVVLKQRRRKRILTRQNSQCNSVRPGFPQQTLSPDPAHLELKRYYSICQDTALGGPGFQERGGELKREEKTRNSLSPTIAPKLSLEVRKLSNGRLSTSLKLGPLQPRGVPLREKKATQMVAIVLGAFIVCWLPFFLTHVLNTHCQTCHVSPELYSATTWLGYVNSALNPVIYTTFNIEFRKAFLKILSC

Ki [nM] | Structure (SMILES)
0.011 | O=C(NCCCn1ccnc1)[C@@H]1C[C@H]1CN1CCC(c2noc3cc(C(F)(F)F)ccc23)CC1 [A002287765, 2R-[4-(6-Trifluoromethyl-benzo[d]isoxazol-3-yl)-piperidin-1-ylmethyl]-1R-cycloproanecarboxylic acid (3-imidazol-1-yl-propyl)-amide]
126 | O=C([C@@H]1C[C@H]1CN1CCC(c2noc3cc(C(F)(F)F)ccc23)CC1)N1CCC[C@@H](Cn2ccnc2)C1 [A002287766]
3.3 | O=C(NCCCn1ccnc1)[C@@H]1C[C@H]1CN1CCC(c2nn(CC(F)(F)F)c3ccsc23)CC1 [A002287767, 2R-{4-[1-(2,2,20Trifluoro-ethyl)-1H-thieno[3,2-c]pyrazol-3-yl)-piperidin-1-ylmethyl]-1R-cycloproanecarboxylic acid (3-imidazol-1-yl-propyl)-amide]
160 | CN1CCN(CCCNC(=O)[C@@H]2C[C@H]2CN2CCN(c3nn(C)c4ccsc34)CC2)CC1 [A002329040]
101 | O=C(NCCCn1ccnc1)[C@@H]1C[C@H]1CN1CCC(c2nsc3cc(Br)ccc23)CC1 [A002329097]
345 | O=C([C@@H]1C[C@H]1CN1CCC(c2nsc3cc(Br)ccc23)CC1)N1CCC(Cn2ccnc2)CC1 [A002329098]
6.32 | O=C(NCCCN1CCCCC1)[C@@H]1C[C@H]1CN1CCC(c2nsc3cc(Br)ccc23)CC1 [A002329100]
100 | CC1CCN(CCCNC(=O)[C@@H]2C[C@H]2CN2CCN(c3nn(C)c4ccsc34)CC2)CC1 [A002350369]
520 | Cn1nc(C2CCN(C[C@@H]3C[C@H]3C(=O)NCCCN3CCCCC3)CC2)c2sccc21 [A002436290]
0.629 | Cn1nc(C2CCN(C[C@@H]3C[C@H]3C(=O)NCCCn3ccnc3)CC2)c2sccc21 [A002436291, 2R-[4-(1-Methyl-1H-thieno[3,2-c]pyrazol-3-yl)-piperidin-1-ylmethyl]-1R-cycloproanecarboxylic acid (3-imidazol-1-yl-propyl)-amide]
2.17 | Cn1nc(N2CCN(C[C@@H]3C[C@H]3C(=O)NC3CCN(Cc4ccc(F)c(F)c4)CC3)CC2)c2sccc21 [A002436428]
4.16 | Cn1nc(N2CCN(C[C@@H]3C[C@H]3C(=O)NC3CCN(Cc4cc(F)ccc4F)CC3)CC2)c2sccc21 [A002436429]
9.23 | O=C(NC1CCN(Cc2cc(F)ccc2F)CC1)[C@@H]1C[C@H]1CN1CCN(c2nn(-c3ccc(OC(F)(F)F)cc3)c3ccsc23)CC1 [A002437082]
7.11 | O=C(NC1CCN(CC2CCCCC2)CC1)[C@@H]1C[C@H]1CN1CCN(c2nn(-c3ccc(OC(F)(F)F)cc3)c3ccsc23)CC1 [A002437084]
91.9 | O=C(NCCCN1CCCCC1)[C@@H]1C[C@H]1CN1CCN(c2csc3ncccc23)CC1 [A002437094]
32.7 | O=C([C@@H]1C[C@H]1CN1CCN(c2nc3cccc4c3n2CCC4)CC1)N1CCC(Cn2ccnc2)CC1 [A002437351]
1.22 | Cn1nc(C2CCN(C[C@@H]3C[C@H]3C(=O)N3CCC[C@@H](Cn4ccnc4)C3)CC2)c2sccc21 [A002437352]
0.541 | COc1cccc2c(C3CCN(C[C@@H]4C[C@H]4C(=O)N4CCC[C@@H](Cn5ccnc5)C4)CC3)noc12 [A002437359, (3S-Imidazol-1-ylmethyl-piperidin-1-yl)-{2R-[4-(7-methoxy-benzo[d]isoxazol-3-yl)-piperidin-1-ylmethyl]-1R-cyclopropyl}-methanone]
0.239 | O=C([C@@H]1C[C@H]1CN1CCC(c2noc3c(C(F)(F)F)cccc23)CC1)N1CCC[C@@H](Cn2ccnc2)C1 [A002437360, (3S-Imidazol-1-ylmethyl-piperidin-1-yl)-{2R-[4-(7-trifluoromethyl-benzo[d]isoxazol-3-yl)-piperidin-1-ylmethyl]-1R-cyclopropyl}-methanone]
10.5 | CN1CCN(CCCNC(=O)[C@@H]2C[C@H]2CN2CCC(c3csc4cc(C(F)(F)F)ccc34)CC2)CC1 [A002437517]

Ki [nM] | Structure (SMILES)
13 | O=C([C@@H]1C[C@H]1CN1CCN(c2csc3cc(C(F)(F)F)ccc23)CC1)N1CCC[C@H](CO)C1 [A002438636]
21.2 | O=C([C@@H]1C[C@H]1CN1CCN(c2csc3cc(C(F)(F)F)ccc23)CC1)N1CCC[C@@H](CO)C1 [A002438637]
3.28 | O=C([C@@H]1C[C@H]1CN1CCN(c2csc3cc(C(F)(F)F)ccc23)CC1)N1CCC[C@H](CN2CCCCC2)C1 [A002438638]
97.3 | CN1CCN(CCCNC(=O)[C@@H]2C[C@H]2CN2CCC(c3noc4c(C(F)(F)F)cccc34)CC2)CC1 [A002438639]
104 | CN1CCN(CCCNC(=O)[C@@H]2C[C@H]2CN2CCC(c3nn(C)c4ccsc34)CC2)CC1 [A002438640]
62.8 | Cn1nc(C2CCN(C[C@@H]3C[C@H]3C(=O)NCC3CCN(C(=O)OC(C)(C)C)CC3)CC2)c2sccc21 [A002438641]
1.37 | O=C([C@@H]1C[C@H]1CN1CCN(c2nc3cccc4c3n2CCC4)CC1)N1CCC[C@@H](Cn2ccnc2)C1 [A002438663]
6.49 | CN1CCN(CCCNC(=O)[C@@H]2C[C@H]2CN2CCC(c3nsc4cc(Br)ccc34)CC2)CC1 [A002438664]
28.3 | CC(C)(C)OC(=O)N1CCC(CNC(=O)[C@@H]2C[C@H]2CN2CCC(c3nn(-c4ccccc4)c4ccsc34)CC2)CC1 [A002439262]
30.6 | CN1CCN(CCCNC(=O)[C@@H]2C[C@H]2CN2CCC(c3nn(-c4ccccc4)c4ccsc34)CC2)CC1 [A002439263]
66 | CC(C)(C)OC(=O)N1CCC(CNC(=O)[C@@H]2C[C@H]2CN2CCC(c3nn(CC(F)(F)F)c4ccsc34)CC2)CC1 [A002439266]
462 | Cn1nc(C2CCN(C[C@@H]3C[C@H]3C(=O)NCC3CCNCC3)CC2)c2sccc21 [A002440434A]
305 | O=C(NCC1CCNCC1)[C@@H]1C[C@H]1CN1CCC(c2nn(CC(F)(F)F)c3ccsc23)CC1 [A002440435A]
11.4 | O=C(NCC1CCNCC1)[C@@H]1C[C@H]1CN1CCC(c2nn(-c3ccccc3)c3ccsc23)CC1 [A002440436A]
41.2 | O=C(NCC1CCNCC1)[C@@H]1C[C@H]1CN1CCC(c2noc3c(C(F)(F)F)cccc23)CC1 [A002440437A]
0.142 | O=C([C@@H]1C[C@H]1CN1CCC(c2csc3cc(C(F)(F)F)ccc23)CC1)N1CCC[C@@H](Cn2ccnc2)C1 [A002609935, (3S-Imidazol-1-ylmethyl-piperidin-1-yl)-{2R-[4-(6-trifluoromethyl-benzo[b]thiophen-3-yl)-piperidin-1-ylmethyl]-1R-cyclopropyl}-methanone]
2.38 | O=C([C@@H]1C[C@H]1CN1CCN(c2csc3cc(F)ccc23)CC1)N1CCC(O)CC1 [compound 828716]
158 | O=C(NC1CC1)[C@@H]1C[C@H]1CN1CCC(c2noc3ccsc23)CC1 [compound 829460]
22.4 | CC1(C)COCN1C(=O)[C@@H]1C[C@H]1CN1CCC(c2noc3ccsc23)CC1 [compound 829464]
80.3 | O=C([C@@H]1C[C@H]1CN1CCC(c2noc3ccsc23)CC1)N1CCN(c2ccc(F)cc2)CC1 [compound 829465]

Structure (SMILES) | Ki [nM]
COc1cccc2c(C3CCN(C[C@@H]4C[C@H]4C(=O)NC4CC5CCC(C4)N5C)CC3)nn(C)c12 (stereo partly drawn) [A002328939] | 201
Cc1ccc2c(c1)c(C1CCN(C[C@@H]3C[C@H]3C(=O)NC3C4CCC3CN(C)C4)CC1)nn2C (stereo partly drawn) [A002328940] | 26.8
Cn1nc(C2CCN(C[C@@H]3C[C@H]3C(=O)N3CCC(Cn4ccnc4)CC3)CC2)c2cccc(C(F)(F)F)c21 [A002329095] | 26.5
Cn1nc(C2CCN(C[C@@H]3C[C@H]3C(=O)NCC3CCNCC3)CC2)c2ccc(C(F)(F)F)cc21 [A002436288A] | 106
Cn1nc(C2CCN(C[C@@H]3C[C@H]3C(=O)N3CCC[C@@H](Cn4ccnc4)C3)CC2)c2ccc(C(F)(F)F)cc21 [A002437353, (3S-Imidazol-1-ylmethyl-piperidin-1-yl)-{2R-[4-(1-methyl-6-trifluoromethyl-1H-indazol-3-yl)-piperidin-1-ylmethyl]-1R-cyclopropyl}-methanone] | 0.937
Cc1ccc2c(c1)c(C1CCN(C[C@@H]3C[C@H]3C(=O)N3CCC[C@@H](Cn4ccnc4)C3)CC1)nn2C [A002437354] | 1.03
CCC(C)OC(=O)n1cc(C2CCN(C[C@@H]3C[C@H]3C(=O)N3CCC[C@@H](Cn4ccnc4)C3)CC2)c2ccc(C(F)(F)F)cc21 (stereo partly drawn) [A002437355] | 1.87
O=C([C@@H]1C[C@H]1CN1CCN(c2csc3ncccc23)CC1)N1CCC[C@@H](Cn2ccnc2)C1 [A002437802] | 0.251
CN1C2CCC1CC(NC(=O)[C@@H]1C[C@H]1CN1CCN(c3csc4cc(C(F)(F)F)ccc34)CC1)C2 (stereo partly drawn) [A002439099] | 4.91
CN1CCN(CCCNC(=O)[C@@H]2C[C@H]2CN2CCC(c3nn(C)c4c(C(F)(F)F)cccc34)CC2)CC1 [A002439259] | 39
Cn1nc(C2CCN(C[C@@H]3C[C@H]3C(=O)N3CCC[C@@H](Cn4ccnc4)C3)CC2)c2cccc(C(F)(F)F)c21 [A002439260] | 0.303
Cn1nc(C2CCN(C[C@@H]3C[C@H]3C(=O)NCC3CCNCC3)CC2)c2cccc(C(F)(F)F)c21 [A002440433A] | 180

same assay, conditions: read-out: d3Ki

Ki [nM] | Structure (SMILES)
113 | CN(C(=O)CCCCN1CCN(c2csc3cc(F)ccc23)CC1)c1ccc(C(C)(C)C)cc1 [compound 822140]
67.4 | C[C@H]1CC[C@H](NC(=O)CCCN2CCN(c3csc4cc(C(F)(F)F)ccc34)CC2)CC1 [compound 826804]
14.2 | CCOC(=O)[C@H]1CC[C@H](NC(=O)CCCN2CCN(c3csc4cc(C(F)(F)F)ccc34)CC2)CC1 [compound 826805]
40 | CC[C@H]1CC[C@H](NC(=O)CCCN2CCN(c3csc4cc(C(F)(F)F)ccc34)CC2)CC1 [compound 826806]
71 | CCN(C(=O)CCCN1CCN(c2csc3cc(C(F)(F)F)ccc23)CC1)C1CCCCC1 [compound 826809]
20 | CC1(C)CCCN(C(=O)CCCN2CCN(c3csc4cc(C(F)(F)F)ccc34)CC2)C1 [compound 826817]
1.5 | CCN(C(=O)CCCN1CCCN(c2csc3cc(F)ccc23)CC1)C1CCCCC1 [compound 826829]
14.3 | O=C(CCCN1CCN(c2csc3cc(F)ccc23)CC1CCCc1ccccc1)N(CCO)C1CCCCC1 (stereo not drawn) [compound 827111]
